{"source": "patent EP1635833B1", "about": "(priority 2003, dated 2004)", "key": {"[1]": {"system": "ricinus oil-induced diarrhea", "conditions": "in vivo"}, "[2]": {"system": "ricinus oil-induced diarrhea", "test": "whole plant or invertebrate", "conditions": "in Meriones unguiculatus, sc, 8 h, read-out: ED50 to postpone the ricinus oil-induced diarrhea"}, "[3]": {"system": "opioid-induced PCO2 increases", "conditions": "rat, in vivo"}, "[4]": {"system": "ricinus oil-induced diarrhea", "conditions": "rat, in vivo"}, "[5]": {"system": "opioid-induced PCO2 increases", "conditions": "guinea pig, in vivo"}, "[6]": {"system": "opioid-induced PCO2 increases", "conditions": "in vivo"}, "charcoal propulsion [7]": {"system": "charcoal propulsion", "conditions": "in vivo"}, "[8]": {"system": "acetone-induced lifting behaviour", "test": "Tolerance in a chronic neuropathic pain model (CCI gerbils, acetone spray test)", "assay_type": "in vivo", "conditions": "11 days"}, "charcoal propulsion [9]": {"system": "charcoal propulsion", "test": "animal or person", "assay_type": "in vivo, rats", "conditions": "Rattus norvegicus, sc, read-out: ED50 for an inhibition of charcoal propulsion (<60 %)"}, "[10]": {"system": "ricinus oil-induced diarrhea", "test": "whole plant or invertebrate", "conditions": "in Rattus norvegicus, sc, 4 h, read-out: ED50 to postpone the ricinus oil-induced diarrhea"}}, "note": "Read-outs that look alike come from different tables or passages of the source."}
{"smiles": "COc1ccc2c3c1O[C@H]1C(=O)CC[C@@]4(O)[C@@H](C2)N(C)CC[C@]314", "note": "[Oxycodone, oxycodone]", "values": [{"measurement": "inhibition of the ricinus oil -induced diarrhea", "setting": "[1]", "value": "dose-dependent inhibition"}]}
{"smiles": "COc1ccc2c3c1O[C@H]1[C@@H](O)C=C[C@H]4[C@@H](C2)N(C)CC[C@@]341", "note": "[Codeine, codeine]", "values": [{"measurement": "inhibition of the ricinus oil -induced diarrhea", "setting": "[1]", "value": "dose-dependent inhibition"}, {"measurement": "ED50", "setting": "[2]", "value": 1.67, "unit": "mg/kg"}]}
{"smiles": "Cc1cccc(C)c1NC(=O)CN1CCN(C2CCN(C(=O)c3cc(C(F)(F)F)cc(C(F)(F)F)c3)C(Cc3ccccc3)C2)CC1", "note": "(single isomer, unassigned; (+)) [Compound 95, (+)-(B)-trans-4-[1-[3,5-bis(trifluoromethyl)benzoyl]-2-(phenylmethyl)-4-piperidinyl]-N-(2,6-dimethylphenyl)-1-piperazine acetamide, (L)-malic acid (1:1)]", "values": [{"measurement": "number of animals reaching high (>50 mm Hg) levels of PCO2", "setting": "[3]", "value": "reduced"}, {"measurement": "PCO2 levels", "setting": "[3]; sc, 40 mg/kg", "value": "did not affect the PCO2 levels"}, {"measurement": "effect of adding Compound 95 on the ED50s of the opioids", "setting": "[1]", "value": "did not alter"}, {"measurement": "effects on constipation", "setting": "[1]", "value": "minimal effects"}, {"measurement": "reduction of the frequency of retches, vomiting and periods of emesis", "setting": "morphine-induced emesis; at 0.4 mg/kg morphine (submaximal dose)", "value": "non-significant tendency"}, {"measurement": "doses with activity on periods of emesis", "setting": "morphine-induced emesis; at 0.8 mg/kg morphine", "value": "≥ 2.5", "unit": "mg/kg"}, {"measurement": "number (frequency) of vomits", "setting": "morphine-induced emesis; at 0.8 mg/kg morphine, 10 mg/kg Compound 95 i.p.", "value": "diminished significantly"}, {"measurement": "number of retches", "setting": "morphine-induced emesis; at 0.8 mg/kg morphine, doses of 10 and 40 mg/kg i.p. Compound 95", "value": "significantly reduced"}, {"measurement": "effect of adding Compound 95 on the ED50s of the opioids", "setting": "[4]", "value": "did not alter"}, {"measurement": "effects on constipation", "setting": "[4]", "value": "minimal effects"}, {"measurement": "PCO2 values", "setting": "[5]", "value": "did not affect PCO2 values"}, {"measurement": "opioid-induced PCO2 levels", "setting": "[5]", "value": "reductions in the opioid-induced PCO2 levels"}, {"measurement": "PCO2 values", "setting": "[6]", "value": "no effects were observed"}, {"measurement": "opioid-induced PCO2 levels", "setting": "[6]", "value": "significant decreases"}, {"measurement": "effect of adding Compound 95 on the outcome of the opioids", "setting": "charcoal propulsion [7]", "value": "did not affect the outcome of the opioids"}, {"measurement": "inhibition of the charcoal propulsion", "setting": "charcoal propulsion [7]", "value": "inactive"}, {"measurement": "acetone-induced lifting behaviour", "setting": "[8]; 2.5 mg/kg Compound 95 i.p. twice daily alone", "value": "limited activity"}, {"measurement": "acetone-induced lifting behaviour, activity over time", "setting": "[8]; 2.5 mg/kg Compound 95 with 2.5 mg/kg morphine i.p. twice daily", "value": "the activity remained present over the entire testing period"}]}
{"smiles": "CN1CC[C@]23c4c5ccc(O)c4O[C@H]2[C@@H](O)C=C[C@H]3[C@H]1C5", "note": "[Morphine, morphine]", "values": [{"measurement": "levels of Pco2", "setting": "[3]", "value": "increased levels of Pco2"}, {"measurement": "inhibition of the ricinus oil -induced diarrhea", "setting": "[1]", "value": "dose-dependent inhibition"}, {"measurement": "ED50", "setting": "charcoal propulsion [9]", "value": 1.66, "unit": "mg/kg"}, {"measurement": "doses causing central side-effects", "setting": "morphine-induced emesis; in vivo, ip", "value": "> 0.8", "unit": "mg/kg"}, {"measurement": "ED50", "setting": "[10]", "value": 2.19, "unit": "mg/kg"}, {"measurement": "inhibition of the ricinus oil -induced diarrhea", "setting": "[4]", "value": "dose-dependent inhibition"}, {"measurement": "PCO2", "setting": "[5]; sc", "value": "increase in PCO2"}]}
